We go through 29 compounds from patent US20230091047A1 (priority 2019, published 2023).

Read-outs that look alike come from different tables or passages of the source.

For data set [1], the system named is HBV (HepG2.117 cell line, inducibly HBV producing). The experiment in a line: Anti-HBV activity: intracellular HBV DNA by real-time PCR in HepG2.117 cells after 3 days of treatment. The format is cell-based, hepatitis B virus. A digest of the protocol:
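Inducible HBV-producing HepG2.117 line (Tet-off); 3-day exposure to serially diluted compound after induction; real-time PCR of intracellular viral DNA.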
Background: Quantitative PCR measures a nucleic acid by following its amplification.

The next data set can be described thus: in vitro. The format is cell-based. The note with it: human, HepG2 or HepG2.117 cells, mean value; for CC50 at 4 days: 4-days incubation (values marked with *). An outline of the steps:
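Luminescent ATP quantitation served as the viability endpoint following a 3- or 4-day incubation with test compounds.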

Setting [2] is: Hepatitis B virus, HepG2.117, 72 h, HepG2.117 cells, 3 days of treatment, intracellular HBV DNA by real-time PCR; mean value; read-out: EC50 (μM, mean value).
The mark [3] stands for this setting: 3-days incubation (unmarked values), ATPlite.
Where [4] appears, read: Hepatitis B virus, HepG2.117, 72 h, HepG2.117 cells, intracellular HBV DNA by real-time PCR, 3 days of treatment, mean value; read-out: EC50 (μM, mean value).
[5] abbreviates: ATPlite, 3-days incubation (not marked with *).

As for `COc1ccc(CNc2nc3c(c(=O)n2C)CCN(C(=O)c2ccc(Cl)c(Cl)c2)C3)cc1` [Compound C52, 7-(3,4-dichlorobenzoyl)-2-{[(4-methoxyphenyl)methyl]amino}-3-methyl-5,6,7,8-tetrahydropyrido[3,4-d]pyrimidin-4(3H)-one], the EC50 in data set [1] (setting [2]) was 5.1 µM. In “in vitro” (setting [3]), the CC50 at 3 days is over 50 µM.
On to `CC(C)Nc1nc2c(c(=O)n1-c1ccc(S(C)(=O)=O)cc1)CCN(C(=O)C1Cc3ccccc3N1)C2` (stereo not shown) [Compound C184, 7-(2,3-dihydro-1H-indole-2-carbonyl)-3-[4-(methanesulfonyl)phenyl]-2-[(propan-2-yl)amino]-5,6,7,8-tetrahydropyrido[3,4-d]pyrimidin-4(3H)-one], for which, in data set [1] (setting [2]), the EC50 was determined as 0.71 µM. Besides, in the data set “in vitro” (setting [3]), the CC50 at 3 days was over 50 µM.
For the compound `CSc1nc2c(c(=O)[nH]1)CCN(C(=O)c1ccc(Cl)c(Cl)c1)C2` [Compound C6, 7-(3,4-dichlorobenzoyl)-2-(methylsulfanyl)-5,6,7,8-tetrahydropyrido[3,4-d]pyrimidin-4(3H)-one], the EC50 in data set [1] (setting [2]) was found to be 16 µM. Further, the CC50 at 4 days in the data set “in vitro” (ATPlite) is over 50 µM.
Take `CC(C)Nc1nc2c(c(=O)n1-c1ccc(-c3ncco3)cc1)CCN(C(=O)c1ccc(Cl)c(Cl)c1)C2` [Compound C162, 7-(3,4-dichlorobenzoyl)-3-[4-(1,3-oxazol-2-yl)phenyl]-2-[(propan-2-yl)amino]-5,6,7,8-tetrahydropyrido[3,4-d]pyrimidin-4(3H)-one]: the half-maximal effective concentration (EC50) in data set [1] (setting [2]) was determined as 0.47 µM. In the data set “in vitro” (setting [3]), this compound had a CC50 at 3 days of over 50 µM.
The like results for `CNC(=O)c1ccc(-n2c(OC(C)C)nc3c(c2=O)C[C@@H](C)N(C(=O)c2ccc(Cl)c(Cl)c2)C3)cc1` [Compound C289, 4-[(6R)-7-(3,4-dichlorobenzoyl)-6-methyl-4-oxo-2-[(propan-2-yl)oxy]-5,6,7,8-tetrahydropyrido[3,4-d]pyrimidin-3(4H)-yl]-N-methylbenzamide] were, in that order, 0.08 µM and over 50 µM.
Turning to `C#C[C@H](C)Nc1nc2c(c(=O)n1-c1ccc(C(=O)NC)cc1)C[C@@H](C)N(C(=O)c1ccc(Cl)c(Cl)c1)C2` [Compound C302, 4-[(6R)-2-{[(2S)-but-3-yn-2-yl]amino}-7-(3,4-dichlorobenzoyl)-6-methyl-4-oxo-5,6,7,8-tetrahydropyrido[3,4-d]pyrimidin-3(4H)-yl]-N-methylbenzamide], in data set [1] (setting [2]), the EC50 amounted to 0.06 µM. Besides, the CC50 at 3 days in the data set “in vitro” (setting [3]) is over 50 µM.
In the case of `CCOC(=O)c1ccc(-n2c(NC(C)C)nc3c(c2=O)C[C@@H](C)N(C(=O)c2ccc(Cl)c(Cl)c2)C3)cc1` [Compound C153, ethyl 4-[(6R)-7-(3,4-dichlorobenzoyl)-6-methyl-4-oxo-2-[(propan-2-yl)amino]-5,6,7,8-tetrahydropyrido[3,4-d]pyrimidin-3(4H)-yl]benzoate], the 50% effective concentration (EC50) in data set [1] (setting [2]) was determined as 0.75 µM. This compound gave a CC50 at 3 days in “in vitro” (setting [3]) of over 50 µM.
`CNC(=O)c1ccc(-n2c(NC(C)C)nc3c(c2=O)C[C@@H](C)N(C(=O)c2[nH]nc(C(F)(F)F)c2C)C3)cc1` [Compound C493]: in data set [1] (setting [4]), the half-maximal effective concentration (EC50) was 15.2 µM. Besides, the cytotoxic concentration (CC50) at 3 days in the data set “in vitro” (setting [5]) was over 50 µM.
`CNC(=O)c1ccc(-n2c(N[C@@H](C)c3ccc(OC(F)(F)F)cc3)nc3c(c2=O)C[C@@H](C)N(C(=O)c2ccc(Cl)c(Cl)c2)C3)cc1` (single isomer, unassigned) [Compound C440b]: in data set [1] (setting [4]), the concentration for a half-maximal effect (EC50) turned out to be 0.07 µM. The same compound displayed a 50% cytotoxic concentration (CC50) at 3 days in “in vitro” (setting [5]) of 6.3 µM.
In the case of `COc1ccc(CNc2nc3c(c(=O)n2-c2cccc(C(F)(F)F)c2)CCN(C(=O)c2ccc(Cl)c(Cl)c2)C3)cc1` [Compound C7, 7-(3,4-dichlorobenzoyl)-2-{[(4-methoxyphenyl)methyl]amino}-3-[3-(trifluoromethyl)phenyl]-5,6,7,8-tetrahydropyrido[3,4-d]pyrimidin-4(3H)-one], the EC50 in data set [1] (setting [2]) came out at 2.03 µM. In addition, the CC50 at 4 days in the data set “in vitro” (ATPlite) is over 50 µM.
Take `CNC(=O)c1ccc(-n2c(NCc3nc(-c4ccccc4)n[nH]3)nc3c(c2=O)C[C@@H](C)N(C(=O)c2ccc(Cl)c(Cl)c2)C3)cc1` [Compound C486]: the 50% effective concentration (EC50) in data set [1] (setting [4]) amounted to 17.3 µM. This compound also displayed a CC50 at 3 days in the data set “in vitro” (setting [5]) of over 50 µM.
The like results for `CNC(=O)c1ccc(-n2c(N3CC4CC3C4)nc3c(c2=O)C[C@@H](C)N(C(=O)c2ccc(Cl)c(Cl)c2)C3)cc1` [Compound C408] were, in that order, 0.05 µM and over 50 µM.
Consider `CC(C)Nc1nc2c(c(=O)n1-c1ccc(S(C)(=O)=O)cc1)[C@@H](C)CN(C(=O)c1ccc(Cl)c(Cl)c1)C2` (single isomer, unassigned) [Compound C154A, (*R)-7-(3,4-dichlorobenzoyl)-2-(isopropylamino)-5-methyl-3-(4-(methylsulfonyl)phenyl)-5,6,7,8-tetrahydropyrido[3,4-d]pyrimidin-4(3H)-one], for which, in data set [1] (setting [2]), the EC50 is 1.32 µM. The compound further showed a CC50 at 3 days in the data set “in vitro” (setting [3]) of over 50 µM.
With `CC(C)Nc1nc2c(c(=O)n1-c1ccc(C(N)=O)cc1)C[C@@H](C)N(C(=O)c1ccc(Cl)c(Cl)c1)C2` [Compound C195, 4-[(6R)-7-(3,4-dichlorobenzoyl)-6-methyl-4-oxo-2-[(propan-2-yl)amino]-5,6,7,8-tetrahydropyrido[3,4-d]pyrimidin-3(4H)-yl]benzamide], in data set [1] (setting [2]), the 50% effective concentration (EC50) worked out at 0.16 µM. The CC50 at 3 days in “in vitro” (setting [3]) was over 50 µM.
Take `CNC(=O)c1ccc(-n2c(NCc3ccc(-c4nc[nH]n4)cc3)nc3c(c2=O)C[C@@H](C)N(C(=O)c2ccc(Cl)c(Cl)c2)C3)cc1` [Compound C468]: the concentration giving a half-maximal response (EC50) in data set [1] (setting [4]) turned out to be 18.8 µM. Besides, the CC50 at 3 days in “in vitro” (setting [5]) was over 50 µM.
With `CNC(=O)c1ccc(-n2c(NC(C)C)nc3c(c2=O)C[C@@H](C)N(C(=O)c2ccc(Br)cc2)C3)cc1` [Compound C563], the EC50 in data set [1] (setting [4]) is 0.26 µM. Besides, the CC50 at 3 days in “in vitro” (setting [5]) is over 50 µM.
In the case of `COc1ccc(CNc2nc3c(c(=O)n2-c2ccnnc2)CCN(C(=O)c2ccc(Cl)c(Cl)c2)C3)cc1` [Compound C135, 7-(3,4-dichlorobenzoyl)-2-{[(4-methoxyphenyl)methyl]amino}-3-(pyridazin-4-yl)-5,6,7,8-tetrahydropyrido[3,4-d]pyrimidin-4(3H)-one], in data set [1] (setting [2]), the EC50 is 1.13 µM. Moreover, in “in vitro” (setting [3]), the CC50 at 3 days worked out at 23.3 µM.
Take `CNC(=O)c1ccc(-n2c(NC(C)C)nc3c(c2=O)C[C@@H](C)N(C(=O)c2ccc(Cl)c(C(F)(F)F)c2)C3)nc1` [Compound C698]: in data set [1] (setting [2]), the EC50 was determined as 0.02 µM. This compound showed a CC50 at 3 days in the data set “in vitro” (3-days incubation (unmarked values), ATPlite viability) of over 50 µM.
`COc1ccc(CNc2nc3c(c(=O)n2-c2ccc(S(C)(=O)=O)nc2)CCN(C(=O)c2ccc(Cl)c(Cl)c2)C3)cc1` [Compound C102, 7-(3,4-dichlorobenzoyl)-3-[6-(methanesulfonyl)pyridin-3-yl]-2-{[(4-methoxyphenyl)methyl]amino}-5,6,7,8-tetrahydropyrido[3,4-d]pyrimidin-4(3H)-one]: in data set [1] (setting [2]), the EC50 amounted to 0.39 µM. For the same compound, the CC50 at 3 days in “in vitro” (setting [3]) is over 50 µM.
With `CNC(=O)c1ccc(-n2c(NCc3nnc4n3CCC4)nc3c(c2=O)C[C@@H](C)N(C(=O)c2ccc(Cl)c(Cl)c2)C3)cc1` [Compound C483], the half-maximal effective concentration (EC50) in data set [1] (setting [4]) was over 12.5 µM. For the same compound, the CC50 at 3 days in the data set “in vitro” (setting [5]) was over 25 µM.
For `CNC(=O)c1ccc(-n2c(NC(C)C)nc3c(c2=O)C[C@@H](C)N(C(=O)c2ccc(C)c(C(F)(F)F)c2)C3)cc1` [Compound C585], the EC50 in data set [1] (setting [4]) is 0.1 µM. Besides, in “in vitro” (setting [5]), the CC50 at 3 days was over 50 µM.
The like results for `Cc1cc(-c2ncc[nH]2)ccc1-n1c(NC(C)C)nc2c(c1=O)C[C@@H](C)N(C(=O)c1ccc(Cl)c(Cl)c1)C2` [Compound C399] were, in that order, 0.24 µM and 25.2 µM.
As to `CC(C)Nc1nc2c(c(=O)n1-c1ccc(C(=O)NCC(C)(C)C(=O)O)cc1)C[C@@H](C)N(C(=O)c1ccc(Cl)c(Cl)c1)C2` [Compound C214, 3-{4-[(6R)-7-(3,4-dichlorobenzoyl)-6-methyl-4-oxo-2-[(propan-2-yl)amino]-5,6,7,8-tetrahydropyrido[3,4-d]pyrimidin-3(4H)-yl]benzamido}-2,2-dimethylpropanoic acid], in data set [1] (setting [2]), the EC50 stood at 14.6 µM. In “in vitro” (setting [3]), this compound came in with a half-maximal cytotoxic concentration (CC50) at 3 days of over 50 µM.
As for `COc1ccc(CNc2nc3c(c(=O)[nH]2)CC(C)N(C(=O)c2ccc(Cl)c(Cl)c2)C3)cc1` (stereo not shown) [Compound C63, 7-(3,4-dichlorobenzoyl)-2-{[(4-methoxyphenyl)methyl]amino}-6-methyl-5,6,7,8-tetrahydropyrido[3,4-d]pyrimidin-4(3H)-one], the EC50 in data set [1] (setting [2]) was 2.59 µM. Further, the CC50 at 3 days in “in vitro” (setting [3]) was determined as 28.4 µM.
For the compound `CNC(=O)c1ccc(-n2c(NC(C)C)nc3c(c2=O)C[C@@H](C)N(C(=O)c2cc4ccc(Cl)c(F)c4[nH]2)C3)cc1` [Compound C594], the EC50 in data set [1] (setting [4]) was found to be 0.04 µM. This compound had a CC50 at 3 days in “in vitro” (setting [5]) of 26.1 µM.
In the case of `CNC(=O)c1ccc(-n2c(NC(C)c3ccc(S(C)(=O)=O)cc3)nc3c(c2=O)C[C@@H](C)N(C(=O)c2ccc(Cl)c(Cl)c2)C3)cc1` (stereo partly shown) [Compound C412], the EC50 in data set [1] (setting [4]) stood at 1.6 µM. The CC50 at 3 days in the data set “in vitro” (setting [5]) was over 50 µM.
`CNC(=O)c1ccc(-n2c(N[C@@H](C)c3nc[nH]n3)nc3c(c2=O)C[C@@H](C)N(C(=O)c2ccc(Cl)c(Cl)c2)C3)cc1` (single isomer, unassigned) [Compound C439b]: the EC50 in data set [1] (setting [4]) is over 10 µM. The CC50 at 3 days in the data set “in vitro” (setting [5]) was over 50 µM.
With `CC(C)Nc1nc2c(c(=O)n1-c1ccc(S(C)(=O)=O)cc1)CCN(C(=O)C1Cc3ccccc3O1)C2` (stereo not shown) [Compound C360], the EC50 in data set [1] (setting [2]) was over 50 µM. Moreover, the CC50 at 3 days in the data set “in vitro” (setting [3]) is over 50 µM.
In the case of `CNC(=O)c1ccc(-n2c(NC(CC3CC3)c3ccccc3)nc3c(c2=O)C[C@@H](C)N(C(=O)c2ccc(Cl)c(Cl)c2)C3)cc1` (stereo partly shown) [Compound C437], the EC50 in data set [1] (setting [4]) came to 0.44 µM. In “in vitro” (setting [5]), this compound had a CC50 at 3 days of 28.1 µM.

In general, EC50 refers to the concentration at which the effect is half-maximal. One may read the CC50 as the concentration at which the toxic effect on the cells reaches its halfway point. High values mean lower toxicity to the cells, low ones greater toxicity to the cells.
